“Also recorded” adds a separate entry of the source.
Tests used:
[1] = target: T1, hS1P4 (Homo sapiens, UniProt O95977); assay: Tango β-arrestin recruitment assay, Tango-hS1P4-CHO; format: cell-based; details: final concentration 45 µM, 9 serial dilutions at 5-fold intervals; 20 h drug treatment; luciferase readout
T1 construct: expressed in transfected cells; host or cells: CHO-K1
T1 sequence (O95977 1-384): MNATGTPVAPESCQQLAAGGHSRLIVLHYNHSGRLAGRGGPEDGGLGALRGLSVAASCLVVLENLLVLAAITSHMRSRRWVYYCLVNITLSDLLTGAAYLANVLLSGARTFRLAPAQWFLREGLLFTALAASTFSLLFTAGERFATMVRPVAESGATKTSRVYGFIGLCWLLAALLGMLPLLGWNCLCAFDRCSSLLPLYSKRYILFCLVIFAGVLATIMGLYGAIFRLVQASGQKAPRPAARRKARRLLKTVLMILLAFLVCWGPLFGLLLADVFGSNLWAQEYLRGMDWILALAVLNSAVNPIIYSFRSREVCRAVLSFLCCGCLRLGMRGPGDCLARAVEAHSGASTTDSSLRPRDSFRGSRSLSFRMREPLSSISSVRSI
From the text: (§1) The Tango assay detects ligand-dependent GPCR activity through the interaction between β-arrestin and GPCRs. […] The NTEV fragment and the tetracycline transactivator (tTA), an artificial transcription factor, are fused at the C-terminus of the GPCR, while the CTEV fragment is fused to human β-arrestin 2. To enhance the stability of the interaction between GPCR and β-arrestin, a short sequence from the C-terminus of the human arginine vasopressin receptor 2 (V2 tail) is inserted between the GPCR and NTEV. The V2 tail contains multiple GRK phosphorylation sites, which strengthen β-arrestin binding upon phosphorylation. The CTEV fragment carries the stabile point mutation S219P and is truncated at residue 221 to remove the autoinhibitory C-terminal tail. Meanwhile, β-arrestin 2 is truncated to lack the entire C-terminal tail (residues 383-410 deleted). This truncation confers robust stimulus-dependent receptor desensitization, thereby improving detection sensitivity compared with wild-type β-arrestin 2. The UAS reporter construct consists of upstream activating sequence (UAS) elements, a minimal CMV promoter, and a tTA-dependent luciferase reporter gene. Therefore, constructing Tango cells requires the co-transfection of the above three plasmids into host cells. Upon GPCR activation and β-arrestin recruitment, the TEV enzyme at the β-arrestin terminus cleaves tTA from the GPCR C-terminus. The released tTA initiates tTA-dependent luciferase transcription, and compound activity is ultimately determined by measuring luminescence intensity.
(§2) • 1) Tango cell line from was digested from the culture dish respectively. After cell counting, the cells were plated at a density of 10,000 cells per well with […] into a white opaque 96-well plate (add 60 µL D'Hanks to the surrounding wells), and incubated overnight (20 h) in a 5% CO2 incubator at 37°C. The cell density will reach approximately 90% the next day. • 2) After 20 h, 30 µL of serially diluted compound solution was added to each well. The control group was supplemented with 30 µL F12K complete medium. Each group had three replicate wells. • 3) Samples were collected after 20 h of drug treatment.
(§3) (All compounds were tested at a final concentration of 45 µM, with 9 serial dilutions at 5-fold intervals. 1 µM BAF-312 was used as the positive control for S1PR1, and 25 µM BAF-312 was used as the positive control for S1PR4.)
(§4) ^a β-arrestin recruitment activity based on Tango-S1PR1-CHO-K1 and Tango-S1PR4-CHO-K1 cells, expressed as mean EC50 values ± SD. ^b FLIPR assays were performed using S1PR2-CHO and S1PR5-CHO cell lines, expressed as mean EC50 values ± SD. ^c β-arrestin recruitment activity based on PathHunter CHO-K1-S1PR3 cells, expressed as mean EC50 values ± SD. Data are the mean of at least two independent determinations, reported as mean ± SD (standard deviation).

[2] = target: T2, hS1P1 (Homo sapiens, UniProt P21453); assay: Tango β-arrestin recruitment assay, Tango-hS1P1-CHO; format: cell-based; details: final concentration 45 µM, 9 serial dilutions at 5-fold intervals; 20 h drug treatment; luciferase readout
T2 construct: expressed in transfected cells; host or cells: CHO-K1
T2 sequence (P21453 whole entry): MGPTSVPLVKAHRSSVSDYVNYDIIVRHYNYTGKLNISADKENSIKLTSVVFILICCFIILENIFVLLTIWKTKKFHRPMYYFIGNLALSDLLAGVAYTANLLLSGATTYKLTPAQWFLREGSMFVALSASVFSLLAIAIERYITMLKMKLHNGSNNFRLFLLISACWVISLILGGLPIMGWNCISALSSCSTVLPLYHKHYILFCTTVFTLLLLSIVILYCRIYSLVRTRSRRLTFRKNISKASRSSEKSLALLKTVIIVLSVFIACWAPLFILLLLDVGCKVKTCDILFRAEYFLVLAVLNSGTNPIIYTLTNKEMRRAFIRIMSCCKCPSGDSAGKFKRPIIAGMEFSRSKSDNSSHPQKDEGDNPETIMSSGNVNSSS
From the text: as §1, §2, §3, §4

[3] = test system: Duchenne muscular dystrophy model mice; assay: In vivo pharmacodynamic test in Duchenne muscular dystrophy model mice (Compound 30)
Experimental: Experimental Animals: A total of 35 Duchenne muscular dystrophy model mice were divided into 6 groups as shown below.
Intragastric administration was initiated from Day 0. Body weight was measured daily during the experiment to adjust the drug dosage. Grip strength tests were performed every 2 days to observe changes in the mice's grip strength until the experiment concluded on Day 21. Changes in the limb grip strength, serum creatine kinase content, and muscle fibrosis/inflammation in the mice were detected as indicators for evaluating drug efficacy.
(§5) The mouse was placed horizontally on the grip test board. The mouse's tail was held and pulled gently in the opposite direction without using excessive force. The tail was gradually pulled until the mouse released the grip force sensor. The maximum value recorded by the grip force sensor is the grip strength. The test was repeated for 3 times and the average value was taken.
(§6) After the completion of administration, blood was collected via the orbital sinus, allowed to stand for 30 minutes, centrifuged at 3000 rpm at 4°C for 15 minutes, and serum was extracted, stored frozen at -20°C, and detected in accordance with the kit instructions.
(§7) After the experiment, the tibialis anterior, extensor digitorum longus, and diaphragm of the mice were harvested, fixed, sectioned, and subjected to HE staining and Sirius Red staining to observe the degree of muscle fibrosis. The slice was subjected to immunofluorescence staining with F4/80 to observe the level of muscle inflammation.

[4] = test system: S1PR4-R82C/NDUFA10-R217W double-mutant mice; assay: In vivo efficacy in S1PR4-R82C/NDUFA10-R217W double-mutant muscular dystrophy mice; details: 1 mg/kg intragastric once daily
Experimental: Experimental Animals: A total of 34 S1PR4-R82C/NDUFA10-R217W mice were divided into 6 groups as shown below.
Intragastric administration was initiated on Day 0, and body weight was measured daily during the experiment to adjust the drug dosage. Grip strength was measured at the beginning and end of the experiment to observe motor changes in mice. Changes in the limb grip strength, serum creatine kinase content, and muscle fibrosis/inflammation in mice were detected as indicators for evaluating drug efficacy.
as §5, §6, §7

[5] = 1 mg/kg intragastric once daily

Structure (SMILES)	EC50 [1] [nM]	EC50 [2] [nM]	also measured
CCc1cc(/C(C)=N/OCc2ccc(OC(C)C)c(C#N)c2)ccc1CN1CC(C(=O)O)C1 [Compound 16, (E)-1-(4-(1-(((3-cyano-4-isopropoxybenzyl)oxy)imino)ethyl)-2-ethylbenzyl)azetidine-3-carboxylic acid]	–	23.2 ± 10.9	–
CCc1cc(/C(C)=N/OCc2ccc(-c3cncnc3C)c(C)c2)ccc1CN1CC[C@H](C(=O)O)C1 [Compound 83, (S, E)-1-(2-ethyl-4-(1-(((3-methyl-4-(4-methylpyrimidin-5-yl)benzyl)oxy)imino)ethyl)benzyl)pyrrolidine-3-carboxylic acid]	40.95 ± 0.22	–	–
CCc1cc(/C(C)=N/OCc2ccc(-c3cnc(F)cn3)c(F)c2)ccc1CN1CC[C@H](C(=O)O)C1 [Compound 88, (S, E)-1-(2-ethyl-4-(1-(((3-fluoro-4-(5-fluoropyrazin-2-yl)benzyl)oxy)imino)ethyl)benzyl)pyrrolidine-3-carboxylic acid]	27.4 ± 1.12	3210 ± 112	–
CCc1cc(/C(C)=N/OCc2cccc(C(F)(F)F)c2)ccc1CN1CC(C(=O)O)C1 [Compound 13]	–	5100 ± 1510	–
CCc1cc(/C(C)=N/OCc2ccc(-c3cnc(F)cn3)c(C)c2)ccc1CN1CCC(C(=O)O)CC1 [Compound 90, (E)-1-(2-ethyl-4-(1-(((3-methyl-4-(5-fluoropyrazin-2-yl)-benzyl)oxy)imino)ethyl)benzyl)piperidine-4-carboxylic acid]	–	5950 ± 72.8	–
C[C@]12C=CC(=O)C=C1CC[C@@H]1[C@@H]2[C@@H](O)C[C@@]2(C)[C@H]1CC[C@]2(O)C(=O)CO [prednisolone, reference compound]	–	–	collagen deposition (collagen area ratio) [3, 5]: significantly reduced collagen deposition; number of centrally nucleated fibers (HE staining) [3, 5]: significantly reduced; serum creatine kinase level ([3]; 1 mg/kg intragastric once daily, after treatment): significantly reduced; body weight growth trend ([3]; 1 mg/kg intragastric once daily, compared with the model group): no difference; macrophage content (F4/80 immunofluorescence, muscle inflammation) ([3]; intragastric once daily): significantly reduced macrophage content; grip strength (ratio of grip strength to body weight) ([4]; after 21 days of treatment): significantly increased; collagen deposition (collagen area ratio) ([4]; after administration): significantly reduced collagen deposition; serum creatine kinase level ([4]; after treatment): no such lowering effect; also recorded: no reduction; body weight gain trend ([4]; compared with the model group): relatively slow
CCc1cc(/C(C)=N/OCc2ccc(-c3ccns3)cc2)ccc1CN1CC[C@H](C(=O)O)C1 [Compound 75]	34.17 ± 0.22	–	–
CCc1cc(/C(C)=N/OCc2ccc(-c3cnc(F)cn3)cc2)ccc1CN1CC[C@H](C(=O)O)C1 [Compound 89]	135 ± 17.8	5250 ± 235	–
CCc1cc(/C(C)=N/OCc2ccc(-c3cncnc3)cc2)ccc1CN1CC[C@H](C(=O)O)C1 [Compound 70, (S, E)-1-(2-ethyl-4-(1-(((4-(pyrimidin-5-yl)benzyl)oxy)imino)ethyl)benzyl)pyrrolidine-3-carboxylic acid]	36.2 ± 6.58	–	–
C/C(=N\OCc1ccc(C2CCCCC2)c(C(F)(F)F)c1)c1ccc(CN2CC(C(=O)O)C2)c(F)c1 [Compound 11]	573 ± 106	5.63 ± 0.15	–
CCc1cc(/C(C)=N/OCc2ccc3ccccc3c2)ccc1CN1CC(C(=O)O)C1 [Compound 15]	560 ± 185	–	–
CCc1cc(/C(C)=N/OCc2ccc(-c3cnc(F)cn3)c(C)c2)ccc1CN1CC[C@@H](C(=O)O)C1 [Compound 95, (R, E)-1-(2-ethyl-4-(1-(((4-(5-fluoropyrazin-2-yl)-3-methylbenzyl)oxy)imino)ethyl)benzyl)pyrrolidine-3-carboxylic acid]	75.4 ± 5.72	125 ± 14.5	–
CCc1cc(/C(C)=N/OCc2ccc(-c3cnc(F)cn3)c(C)c2)ccc1CN1CC(C(=O)O)C1 [Compound 91, (E)-1-(2-ethyl-4-(1-(((3-methyl-4-(5-fluoropyrazin-2-yl)-benzyl)oxy)imino)ethyl)benzyl)azetidine-3-carboxylic acid]	–	54.45 ± 0.2	–

Further compounds by falling EC50 [1], results first:

EC50 [1] [nM]	EC50 [2] [nM]	Structure (SMILES)	also measured
18 ± 0.525	–	CCc1cc(/C(C)=N/OCc2ccc(-c3cnc(F)nc3)c(C)c2)ccc1CN1CC[C@H](C(=O)O)C1 [Compound 80, (S, E)-1-(2-ethyl-4-(1-(((4-(2-fluoropyrimidin-5-yl)-3-methylbenzyl)oxy)imino)ethyl)benzyl)pyrrolidine-3-carboxylic acid]	–
13.9 ± 1.48	614 ± 50.2	CCc1cc(/C(C)=N/OCc2cc(C)c(-c3cnc(F)cn3)cc2F)ccc1CN1CC[C@H](C(=O)O)C1 [Compound 94, (S, E)-1-(2-ethyl-4-(1-(((2-fluoro-4-(5-fluoropyrazin-2-yl)-5-methylbenzyl)oxy)imino)ethyl)benzyl)pyrrolidine-3-carboxylic acid]	–
13.13 ± 0.02	–	CCc1cc(/C(C)=N/OCc2ccc(-c3cnsc3)cc2)ccc1CN1CC[C@H](C(=O)O)C1 [Compound 74]	–
12 ± 1	348 ± 40.4	CCc1cc(/C(C)=N/OCc2ccc(-c3cnc(F)cn3)c(C)c2F)ccc1CN1CC[C@H](C(=O)O)C1 [Compound 93, (S, E)-1-(2-ethyl-4-(1-(((2-fluoro-4-(5-fluoropyrazin-2-yl)-3-methylbenzyl)oxy)imino)ethyl)benzyl)pyrrolidine-3-carboxylic acid]	–
10.7 ± 0.11	–	CCc1cc(/C(C)=N/OCc2ccc(-c3cccs3)cc2)ccc1CN1CC[C@H](C(=O)O)C1 [Compound 73]	–
10.6 ± 1.19	–	CCc1cc(/C(C)=N/OCc2ccc(-c3cnc(F)cn3)c(C)c2)ccc1CN1CCC(C(=O)O)C1 (stereo not drawn) [Compound 4, (E)-1-(2-ethyl-4-(1-(((4-(5-fluoropyrazin-2-yl)-3-methylbenzyl)oxy)imino)ethyl)benzyl)pyrrolidine-3-carboxylic acid]	–

Reference: patent EP4792811A1, “S1PR4 REGULATOR COMPOUND FOR MUSCLE DISEASE TREATMENT AND APPLICATION THEREOF” (Shengyuan Zetong (Shanghai) Pharmaceutical Co., Ltd, priority 2023, dated 2025)
